Drawing on patent US10457707B2, “Substituted urea depsipeptide analogs as activators of the CLPP endopeptidase” (priority 2015, dated 2019), this text covers IC50 and MIC for nine compounds.

For orientation: IC50 means the concentration needed to halve the response being measured.

≈ marks a conversion by molar mass, not a printed value. Like-named read-outs stand apart in the source and are kept apart here. *1 amine or outer side, *2 acyl side, *3 side chain or, on linkers, in order; H or OH if unused. Where a SMILES comes first, the peptide text is derived from it. Bridges are numbered along the chain shown (N, C = ends). [ ]: non-standard residue; d: D form. The star is where a group is joined. NH(1,3-benzodioxol-5-yl) = c1cc2c(cc1N*)OCO2; Phe(3,5-F2) = N[C@@H](Cc1cc(F)cc(F)c1)C(=O)O; Morpholine(3S-CO) = O=C(O)[C@@H]1COCCN1; NH(4-Cl-2-F-phenyl) = Fc1cc(Cl)ccc1N*; Pro(4R-Me) = C[C@H]1CN[C@H](C(=O)O)C1; Hyp = O=C(O)[C@@H]1C[C@@H](O)CN1; NH(4-Et-phenyl) = CCc1ccc(N*)cc1; NH(4-Me-phenyl) = Cc1ccc(N*)cc1; aThr = C[C@H](O)[C@H](N)C(=O)O; Pip = O=C(O)[C@@H]1CCCCN1; X2 = CN1CCc2ccc(N*)cc21; X1 = N#Cc1cc(N*)ccc1F; CO = O=C([*:1])[*:2]

What all share (type): cell-based
Series [1] can be described thus: Cytotoxicity assay (CellTiter-Glo cell viability, 72 hours). The note with it: African green monkey. The method in brief:
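Viability measured by CellTiter-Glo luminescence after 72-hour compound exposure (serial dilutions, DMSO control) of Vero monolayers seeded at 5000 cells/well in 10% FBS DMEM. IC50 values are the range of two biologically independent experiments, each run in duplicate.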
On the technique in general: ATP-based viability assays read luminescence as a measure of living cells.

Series [2] has as its system Streptococcus pyogenes, ATCC 700294. The series is described as follows: Minimal inhibitory concentration assay (microbroth dilution). The method in brief:
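Plates with two-fold compound dilution series in broth were incubated overnight, aerobically, at 37° C, following CLSI microdilution guidance.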

In series [3] the test system is Bacillus subtilis, ATCC 23857. The description is as above. The method in brief:
(§1)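 Visual read-out; MIC is the lowest drug concentration with no bacterial growth after overnight aerobic incubation at 37 °C. Compound was tested in two-fold dilutions starting at 200 μM final, with an inoculum of approximately 10^5 cfu/mL, following CLSI microdilution guidance.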

The subject of series [4] is Staphylococcus aureus, NRS70. The description is as above. The essentials:
as §1

Series [5] concerns Staphylococcus aureus, ATCC 29213. The description is as above. Conditions: ATCC29213, read-out: Minimal Inhibitory Concentrations S. aureus ATCC 29213. The method in brief: as §1
[6] abbreviates: Streptococcus pyogenes, ATCC700294; read-out: Minimal Inhibitory Concentrations S. pyogenes ATCC 700294.
[7] abbreviates: Bacillus subtilis, ATCC23857; read-out: Minimal Inhibitory Concentrations B. subtilis ATCC 23857.
[8] abbreviates: Staphylococcus aureus, NRS70; read-out: Minimal Inhibitory Concentrations S. aureus NRS70.
Setting [9] is: Vero cells, 72 hours, growth inhibition, read-out: Cytotoxicity IC50.
The mark [10] stands for this setting: Streptococcus pyogenes, ATCC700294, read-out: Minimal Inhibitory Concentrations S. pyogenes ATCC 700294.
[11] abbreviates: Bacillus subtilis, ATCC23857, read-out: Minimal Inhibitory Concentrations B. subtilis ATCC 23857.
Where [12] appears, read: Staphylococcus aureus, NRS70, read-out: Minimal Inhibitory Concentrations S. aureus NRS70.

In series [1], `C[C@@H]1C[C@H]2C(=O)O[C@@H](C)[C@H](NC(=O)[C@H](Cc3cc(F)cc(F)c3)NC(=O)Nc3ccc(Cl)cc3F)C(=O)N3C[C@H](O)C[C@H]3C(=O)N3CCOC[C@H]3C(=O)N[C@@H](C)C(=O)N2C1` [Compound 316, (S)-2-(3-(4-chloro-2-fluorophenyl)ureido)-3-(3,5-difluorophenyl)-N-((6aS,8R,12S,13S,15aS,17R,21S,23aS)-8-hydroxy-13,17,21-trimethyl-6,11,15,20,23-pentaoxooctadecahydro-6H,11H,15H-[1,4]oxazino[3,4-i]dipyrrolo[2,1-c:2′,1′-l][1]oxa[4,7,10,13]tetraazacyclo-hexadecin-12-yl)propanamide] ({NH(4-Cl-2-F-phenyl)-CO}-[Phe(3,5-F2)][aThr][Hyp][Morpholine(3S-CO)]A[Pro(4R-Me)]; ester 2-C) returned a half-maximal inhibitory concentration (IC50) at 72 h above 100 µM. Besides, the MIC in series [2] (setting [6]) was below 0.02 µM; in series [3] (setting [7]) it was 0.313 µM (≈ 0.271 µg/mL); in series [4] (setting [8]), 0.078 µM (≈ 0.0674 µg/mL); in series [5] it was 0.078 µM (≈ 0.0674 µg/mL).
With `Cc1ccc(NC(=O)N[C@@H](Cc2cc(F)cc(F)c2)C(=O)N[C@H]2COC(=O)[C@@H]3C[C@@H](C)CN3C(=O)[C@H](C)NC(=O)[C@@H]3COCCN3C(=O)[C@@H]3C[C@@H](O)CN3C2=O)cc1` [Compound 317, (S)-3-(3,5-difluorophenyl)-N-((6aS,8R,12S,15aS,17R,21S,23aS)-8-hydroxy-17,21-dimethyl-6,11,15,20,23-pentaoxooctadecahydro-6H,11H,15H-[1,4]oxazino[3,4-i]dipyrrolo[2,1-c:2′,1′-l][1]oxa[4,7,10,13]tetraazacyclohexadecin-12-yl)-2-(3-(p-tolyl)ureido)propanamide] ({NH(4-Me-phenyl)-CO}-[Phe(3,5-F2)]S[Hyp][Morpholine(3S-CO)]A[Pro(4R-Me)]; ester 2-C), the IC50 at 72 h in series [1] (setting [9]) is above 100 µM. Besides, the MIC in series [2] (setting [10]) is 0.156 µM (≈ 0.127 µg/mL); in series [3] (setting [11]) it was 10 µM (≈ 8.12 µg/mL); in series [4] (setting [12]), 2.5 µM (≈ 2.03 µg/mL); in series [5], 2.5 µM (≈ 2.03 µg/mL).
In turn, `C[C@@H]1C[C@H]2C(=O)OC[C@H](NC(=O)[C@H](Cc3cc(F)cc(F)c3)NC(=O)Nc3ccc4c(c3)OCO4)C(=O)N3C[C@H](O)C[C@H]3C(=O)N3CCOC[C@H]3C(=O)N[C@@H](C)C(=O)N2C1` [Compound 318, (S)-2-(3-(benzo[d][1,3]dioxol-5-yl)ureido)-3-(3,5-difluorophenyl)-N-((6aS,8R,12S,15aS,17R,21S,23aS)-8-hydroxy-17,21-dimethyl-6,11,15,20,23-pentaoxooctadecahydro-6H,11H,15H-[1,4]oxazino[3,4-i]dipyrrolo[2,1-c:2′,1′-l][1]oxa[4,7,10,13]tetraazacyclo-hexadecin-12-yl)propanamide] ({NH(1,3-benzodioxol-5-yl)-CO}-[Phe(3,5-F2)]S[Hyp][Morpholine(3S-CO)]A[Pro(4R-Me)]; ester 2-C) showed an IC50 at 72 h in series [1] above 100 µM. The MIC in series [2] (setting [6]) was 0.625 µM (≈ 0.526 µg/mL); in series [3] (setting [7]) it was above 20 µM; in series [4] (setting [8]) it was 20 µM (≈ 16.8 µg/mL); in series [5] it was 20 µM (≈ 16.8 µg/mL).
Compound `C[C@@H]1C[C@H]2C(=O)O[C@@H](C)[C@H](NC(=O)[C@H](Cc3cc(F)cc(F)c3)NC(=O)Nc3ccc4c(c3)OCO4)C(=O)N3C[C@H](O)C[C@H]3C(=O)N3CCOC[C@H]3C(=O)N[C@@H](C)C(=O)N2C1` [Compound 319, (S)-2-(3-(benzo[d][1,3]dioxol-5-yl)ureido)-3-(3,5-difluorophenyl)-N-((6aS,8R,12S,13S,15aS,17R,21S,23aS)-8-hydroxy-13,17,21-trimethyl-6,11,15,20,23-pentaoxooctadecahydro-6H,11H,15H-[1,4]oxazino[3,4-i]dipyrrolo[2,1-c:2′,1′-l][1]oxa[4,7,10,13]tetraazacyclo-hexadecin-12-yl)propanamide] ({NH(1,3-benzodioxol-5-yl)-CO}-[Phe(3,5-F2)][aThr][Hyp][Morpholine(3S-CO)]A[Pro(4R-Me)]; ester 2-C) returned an IC50 at 72 h in series [1] above 100 µM. Besides, the MIC in series [2] (setting [6]) stood at 0.313 µM (≈ 0.268 µg/mL); in series [3] (setting [7]), 10 µM (≈ 8.56 µg/mL); in series [4] (setting [8]) it was 5 µM (≈ 4.28 µg/mL); in series [5] it was 2.5 µM (≈ 2.14 µg/mL).
Regarding `CCc1ccc(NC(=O)N[C@@H](Cc2cc(F)cc(F)c2)C(=O)N[C@@H]2C(=O)N3C[C@H](O)C[C@H]3C(=O)N3CCOC[C@H]3C(=O)N[C@@H](C)C(=O)N3C[C@H](C)C[C@H]3C(=O)O[C@H]2C)cc1` [Compound 320, (S)-3-(3,5-difluorophenyl)-2-(3-(4-ethylphenyl)ureido)-N-((6aS,8R,12S,13S,15aS,17R,21S,23aS)-8-hydroxy-13,17,21-trimethyl-6,11,15,20,23-pentaoxooctadecahydro-6H,11H,15H-[1,4]oxazino[3,4-i]dipyrrolo[2,1-c:2′,1′-l][1]oxa[4,7,10,13]-tetraazacyclohexadecin-12-yl)propanamide] ({NH(4-Et-phenyl)-CO}-[Phe(3,5-F2)][aThr][Hyp][Morpholine(3S-CO)]A[Pro(4R-Me)]; ester 2-C), the IC50 at 72 h in series [1] is above 100 µM. The MIC is 0.039 µM (≈ 0.0328 µg/mL) in series [2] (setting [6]), 0.625 µM (≈ 0.525 µg/mL) in series [3] (setting [7]), 0.156 µM (≈ 0.131 µg/mL) in series [4] (setting [8]) and 0.156 µM (≈ 0.131 µg/mL) in series [5].
For `C[C@@H]1C[C@H]2C(=O)O[C@@H](C)[C@H](NC(=O)[C@H](Cc3cc(F)cc(F)c3)NC(=O)Nc3ccc4c(c3)N(C)CC4)C(=O)N3CCC[C@H]3C(=O)N3CCCC[C@H]3C(=O)N[C@@H](C)C(=O)N2C1` [Compound 321, (S)-3-(3,5-difluorophenyl)-2-(3-(1-methylindolin-6-yl)ureido)-N-((2R,6S,8aS,14aS,20S,21S,23aS)-2,6,21-trimethyl-5,8,14,19,23-pentaoxooctadecahydro-1H,5H,14H,19H-pyrido[2,1-i]dipyrrolo[2,1-c:2′,1′-l][1]oxa[4,7,10,13]tetraazacyclo-hexadecin-20-yl)propanamide] ({X2-CO}-[Phe(3,5-F2)][aThr]P[Pip]A[Pro(4R-Me)]; ester 2-C), the IC50 at 72 h in series [1] (setting [9]) amounted to 1.39 ± 0.1 µM. Besides, the MIC worked out at 0.313 µM (≈ 0.266 µg/mL) in series [2] (setting [10]), 0.313 µM (≈ 0.266 µg/mL) in series [3] (setting [11]), 0.156 µM (≈ 0.132 µg/mL) in series [4] (setting [12]) and 0.313 µM (≈ 0.266 µg/mL) in series [5].
`Cc1ccc(NC(=O)N[C@@H](Cc2cc(F)cc(F)c2)C(=O)N[C@H]2COC(=O)[C@@H]3C[C@@H](C)CN3C(=O)[C@H](C)NC(=O)C3CCCCN3C(=O)[C@@H]3C[C@@H](O)CN3C2=O)cc1` (stereo partly drawn) [Compound 323, (S)-3-(3,5-difluorophenyl)-N-((2R,6S,8aR,14aS,16R,20S,23aS)-16-hydroxy-2,6-dimethyl-5,8,14,19,23-pentaoxooctadecahydro-1H,5H,14H,19H-pyrido[2,1-i]dipyrrolo[2,1-c:2′,1′-l][1]oxa[4,7,10,13]tetraazacyclohexadecin-20-yl)-2-(3-(p-tolyl)ureido)propanamide]: the IC50 at 72 h in series [1] (setting [9]) was above 100 µM. In addition, the MIC in series [2] (setting [10]) came out at 0.156 µM (≈ 0.126 µg/mL); in series [3] (setting [11]) it was 0.313 µM (≈ 0.253 µg/mL); in series [4] (setting [12]), 0.625 µM (≈ 0.506 µg/mL); in series [5] it was 0.625 µM (≈ 0.506 µg/mL).
In the case of `C[C@@H]1C[C@H]2C(=O)O[C@@H](C)[C@H](NC(=O)[C@H](Cc3cc(F)cc(F)c3)NC(=O)Nc3ccc(F)c(C#N)c3)C(=O)N3CCC[C@H]3C(=O)N3CCCC[C@H]3C(=O)N[C@@H](C)C(=O)N2C1` [Compound 324, (S)-2-(3-(3-cyano-4-fluorophenyl)ureido)-3-(3,5-difluorophenyl)-N-((2R,6S,8aS,14aS,20S,21S,23aS)-2,6,21-trimethyl-5,8,14,19,23-pentaoxooctadecahydro-1H,5H,14H,19H-pyrido[2,1-i]dipyrrolo[2,1-c:2′,1′-l][1]oxa[4,7,10,13]tetraazacyclo-hexadecin-20-yl)propanamide] ({X1-CO}-[Phe(3,5-F2)][aThr]P[Pip]A[Pro(4R-Me)]; ester 2-C), in series [1], the IC50 at 72 h turned out to be 10.2 ± 0.5 µM. In addition, the MIC in series [2] (setting [6]) was determined as 1.25 µM (≈ 1.05 µg/mL); in series [3] (setting [7]), 0.625 µM (≈ 0.523 µg/mL); in series [4] (setting [8]) it was 0.313 µM (≈ 0.262 µg/mL); in series [5], 0.313 µM (≈ 0.262 µg/mL).
Consider `C[C@@H]1C[C@H]2C(=O)OC[C@H](NC(=O)[C@H](Cc3cc(F)cc(F)c3)NC(=O)Nc3ccc4c(c3)OCO4)C(=O)N3C[C@H](O)C[C@H]3C(=O)N3CCCCC3C(=O)N[C@@H](C)C(=O)N2C1` (stereo partly drawn) [Compound 325, (S)-2-(3-(benzo[d][1,3]dioxol-5-yl)ureido)-3-(3,5-difluorophenyl)-N-((2R,6S,8aR,14aS,16R,20S,23aS)-16-hydroxy-2,6-dimethyl-5,8,14,19,23-pentaoxooctadecahydro-1H,5H,14H,19H-pyrido[2,1-i]dipyrrolo[2,1-c:2′,1′-l][1]oxa[4,7,10,13]tetraazacyclo-hexadecin-20-yl)propanamide], for which the IC50 at 72 h in series [1] is above 100 µM. Moreover, the MIC in series [2] (setting [6]) is 0.156 µM (≈ 0.131 µg/mL); in series [3] (setting [7]), 2.5 µM (≈ 2.1 µg/mL); in series [4] (setting [8]) it was 1.25 µM (≈ 1.05 µg/mL); in series [5], 1.25 µM (≈ 1.05 µg/mL).
